Results from patent US10828301B2, “2,4-pyrimidinediamine compounds and their uses” (Rigel Pharmaceuticals, Inc, priority 2002, dated 2020).
Counter-ions that a name gives are not always drawn. Like-named read-outs stand apart in the source and are kept apart here.

Experiments:
Format in all cases: cell-based
[1] = tested on: bone marrow derived mast cells (BMMC); assay: BMMC high cell density IgE activation: degranulation (hexosiminidase, histamine), leukotriene (LTC4) and cytokine (TNFalpha, IL-6) assays; settings: Mus musculus, anti-IgE activation, hexosaminidase release, read-out: BMMC anti-IgE hexos IC50
Procedure: After sensitizing, cells are counted, pelleted (1000 rpm, 5-10 minutes), and resuspended at 1-3×10^6 cells/ml in MT buffer. Add 100 ul of cell suspension to each well and 100 ul of compound dilutions. The final vehicle concentration is 0.5% DMSO. Incubate at 37° C. (5% CO2) for 1 hour. After 1 hour of compound treatment, stimulate cells with 6× stimulus (60 ng/ml DNP-BSA). Mix wells with the cells and allow plates to incubate at 37° C. (5% CO2) for one hour. After 1 hour incubation, pellet cells (10 minutes, 1000 RPM) and collect 200 ul per well of the supernatant, being careful not to disturb pellet, and transfer to a clean tube or 96-well plate. Place the supernatant plate on ice. During the 4-5 hour step (see next) perform the hexosiminidase assay. Resuspend cell pellet in 240 ul WEI-conditioned media containing 0.5% DMSO and corresponding concentration of compound. Incubate BMMC cells for 4-5 hours at 37° C. (5% CO2). After incubation, pellet cells (1000 RPM, 10 minutes) and collect 225 ul per well and place in −80° C. until ready to perform ELISAS. ELISAS are performed on appropriately diluted samples (determined empirically for each donor cell population so that the sample measurement falls within the standard curve) following the supplier's instructions.
Add 50 uL of BMMC cell supernatant (see above) to the hexoseaminidase substrate, place at 37° C. for 30 minutes and read the plate at 5, 10, 15, and 30 minutes on a spectrophotometer.

[2] = tested on: cultured human mast cells (CHMC); assay: CHMC low cell density ionomycin activation: tryptase assay; settings: Homo sapiens, Mast cell, Low Density CHMC, ionomycin activation
[3] = tested on: cultured human mast cells (CHMC); assay: CHMC low cell density IgE activation: tryptase and LTC4 assays; settings: Homo sapiens, Mast cell, Low Density CHMC, anti-IgE activation
Procedure, shortened: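 Degranulation measured after 30 min anti-IgE challenge at 37° C of CHMC plated at 1000-1500 cells/well following 1 h preincubation. Readouts: LTC4 by ELISA on donor-specific diluted supernatants, and tryptase activity from a 30 min room-temperature substrate reaction.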

[4] = tested on: ionophore-induced degranulation of mast and/or basophil cells; assay: Ionophore (ionomycin or A23187)-induced degranulation counter screen; settings: high density BMMC, ionomycin activation, hexosaminidase release, read-out: BMMC Ionomycin Hexos. IC50
Excerpt: In addition to the FcεRI or FcγRI degranulation pathways discussed above, degranulation of mast and/or basophil cells can be induced by other agents. For example, ionomycin, a calcium ionophore that bypasses the early FcεRI or FcγRI signal transduction machinery of the cell, directly induces a calcium flux that triggers degranulation. Referring again to FIG. 2, activated PLCγ initiates pathways that lead to, among other things, calcium ion mobilization and subsequent degranulation. As illustrated, this Ca^2+ mobilization is triggered late in the FcεRI signal transduction pathway. […] Other ionophores that induce degranulation in this manner include A23187. The ability of granulation-inducing ionophores such as ionomycin to bypass the early stages of the FcεRI and/or FcγRI signaling cascades may be used as a counter screen to identify active compounds of the invention that specifically exert their degranulation-inhibitory activity by blocking or inhibiting the early FcεRI or FcγRI signaling cascades, as discussed above.
Assays suitable for determining the IC50 of ionophore-induced degranulation include any of the previously-described degranulation assays, with the modification that the cells are stimulated or activated with a degranulation-inducing calcium ionophore such as ionomycin or A23187 (A.G. Scientific, San Diego, Calif.) instead of anti-IgE antibodies or an IgE-specific allergen. Specific assays for assessing the ability of a particular 2,4-pyrimidinediamine compound of the invention to inhibit ionophore-induced degranulation are provided in the Examples section.

[5] = tested on: basophils in whole human peripheral blood; assay: Basophil IgE activation: histamine release assay; settings: anti-IgE activation
Procedure: The basophil activation assay was carried out using whole human peripheral blood from donors allergic to dust mites with the majority of the red blood cells removed by dextran sedimentation. Human peripheral blood was mixed 1:1 with 3% dextran T500 and RBCs were allowed to settle for 20-25 min. The upper fraction was diluted with 3 volumes of D-PBS and cells were spun down for 10 min at 1500 rpm, RT. Supernatant was aspirated and cells were washed in an equal volume MT-buffer. Finally, cells were resuspended in MT-buffer containing 0.5% DMSO in the original blood volume. 80 uL cells were mixed with 20 uL compound in the presence of 0.5% DMSO, in triplicate, in a V-bottom 96-well tissue culture plate. A dose range of 8 compound concentrations was tested resulting in a 10-point dose response curve including maximum (stimulated) and minimum (unstimulated) response. […] The cells were stimulated for 30 minutes at 37° C., 5% CO2. The plate was spun for 10 min at 1500 rpm at room temperature and 80 uL the supernatant was harvested for histamine content analysis using the histamine ELISA kit supplied by Immunotech. The ELISA was performed according to supplier's instructions.

[6] = tested on: basophils in whole human peripheral blood; assay: Basophil ionomycin activation: histamine release assay
Procedure: Assays for ionomycin-induced basophil cell degranulation were carried out as described for the Basophil IgE or Dustmite Activation Assay (Section 6.4.6, supra), with the exception that following incubation with compound, cells were stimulated with 20 μl of 2 μM ionomycin.

[7] = hexosaminidase readout, read-out: CHMC Ionomycin Hexos.
[8] = hexosaminidase readout, read-out: CHMC anti-IgE Hexos.
[9] = tryptase readout, read-out: CHMC Ionomycin Tryptase
[10] = tryptase readout, read-out: CHMC anti-IgE Tryptase

IC50 [1] [µM]	IC50 [3, 8] [µM]	IC50 ([5]; Homo sapiens) [µM]	IC50 ([6]; Homo sapiens) [µM]	Compound	IC50 ([4]; Mus musculus) [µM]	also measured
2.4	4.76			CCOc1ccc(Nc2ncc(F)c(Nc3ccc(OC)c(OC)c3)n2)cc1 [Compound R926145, N4-(3,4-Dimethoxyphenyl)-N2-(4-ethoxyphenyl)-5-fluoro-2,4-pyrimidinediamine]	8.8	IC50 [2, 7]: > 10 µM
		1.75	> 10	CCOc1ccc(Nc2nc(Nc3ccc4c(c3)OCCO4)ncc2F)cc1 [Compound R926213, N4-(4-Ethoxyphenyl)-N2-(3,4-ethylenedioxyphenyl)-5-fluoro-2,4-pyrimidinediamine]		IC50 [2, 9]: 5.5 µM; IC50 [3, 10]: 1.64 µM
> 10		> 10	> 10	Fc1cnc(Nc2ccc(C(F)(F)F)cc2)nc1Nc1ccc(C(F)(F)F)cc1 [Compound R926016, N2,N4-Bis(4-trifluoromethylphenyl)-5-fluoro-2,4-pyrimidinediamine]	> 10	
2.8		2.5	> 10	CN(C)c1ccc(Nc2ncc(F)c(Nc3ccc(N(C)C)cc3)n2)cc1 [Compound R926086, N2,N4-Bis[4-(N,N-dimethylamino)phenyl]-5-fluoro-2,4-pyrimidinediamine]	7.3	
8.5		> 10	10	Fc1cc(Nc2ncc(F)c(Nc3ccc(C(F)(F)F)c(F)c3)n2)ccc1C(F)(F)F [Compound R926018, N2,N4-Bis(3-fluoro-4-trifluoromethylphenyl)-5-fluoro-2,4-pyrimidinediamine]	> 10	
0.5		0.5	> 10	COc1ccc(Nc2ncc(F)c(Nc3ccc4c(c3)OCCO4)n2)cc1OC [Compound R926212, N2-(3,4-Dimethoxyphenyl)-N4-(3,4-ethylenedioxyphenyl)-5-fluoro-2,4-pyrimidinediamine]	5	IC50 [2, 9]: > 10 µM; IC50 ([3]; LTC4 readout, read-out: CHMC anti-IgE LTC4): 0.45 µM; IC50 [3, 10]: 0.654 µM
3.9	2.7	1.55	> 10	CCOc1ccc(Nc2ncc(F)c(Nc3ccc4c(c3)OCCO4)n2)cc1 [Compound R926211, N2-(4-Ethoxyphenyl)-N4-(3,4-ethylenedioxyphenyl)-5-fluoro-2,4-pyrimidinediamine]	> 10	IC50 [2, 7]: > 10 µM; IC50 [2, 9]: 9.8 µM; IC50 [3, 10]: 1.3 µM
10		> 10	> 10	Fc1cnc(Nc2cccc(Cl)c2)nc1Nc1cccc(Cl)c1 [Compound R926209, N2,N4-Bis(3-chlorophenyl)-5-fluoro-2,4-pyrimidinediamine]	9.1	
> 10		> 10	> 10	Fc1cnc(Nc2ccc(Cl)c(C(F)(F)F)c2)nc1Nc1ccc(Cl)c(C(F)(F)F)c1 [Compound R926039, N2,N4-Bis(4-chloro-3-trifluoromethylphenyl)-5-fluoro-2,4-pyrimidinediamine]	> 10	
				O=C(c1cc2cc(Nc3ncc(F)c(Nc4cccc(O)c4)n3)ccc2o1)N1CCNCC1 [Compound R926502, 5-Fluoro-N4-(3-hydroxyphenyl)-N2-[2-(N-piperazino)carbonylbenzofuran-5-yl]-2,4-pyrimidinediamine Hydrogen Chloride Salt]		IC50 [6]: > 10 µM
2.5	1.1			CC(C)(C)c1ccc(Nc2ncc(F)c(Nc3ccc4c(c3)OCCO4)n2)cc1 [Compound R926219, N2-(4-tert-Butylphenyl)-N4-(3,4-ethylenedioxyphenyl)-5-fluoro-2,4-pyrimidinediamine]	3.2	IC50 [2, 7]: 6.7 µM
6.6		> 10	> 10	Fc1cnc(Nc2ccc(Cl)cc2)nc1Nc1ccc(Cl)cc1 [Compound R926206, N2,N4-Bis(4-chlorophenyl)-5-fluoro-2,4-pyrimidinediamine]	8.6	
1.4	1.43	0.53	> 10	COc1ccc(Nc2ncc(F)c(Nc3ccc(OC)cc3)n2)cc1 [Compound R926017, N2,N4-Bis(4-methoxyphenyl)-5-fluoro-2,4-pyrimidinediamine]	9.6	IC50 [2, 7]: > 10 µM
2	1.9			COc1ccc(Nc2nc(Nc3cccc(O)c3)ncc2F)cc1OC [Compound R926147, N4-(3,4-Dimethoxyphenyl)-5-fluoro-N2-(3-hydroxyphenyl)-2,4-pyrimidinediamine]	7.1	IC50 [2, 7]: > 10 µM
				Fc1cnc(Nc2ccc3c(c2)OC(F)(F)C(F)(F)O3)nc1Nc1ccc2c(c1)OC(F)(F)C(F)(F)O2 [Compound R926037, N2,N4-Bis(3,4-tetrafluoroethylendioxyphenyl)-5-fluoro-2,4-pyrimidinediamine]		IC50 [4]: > 10 µM; IC50 [5]: > 10 µM; IC50 [6]: > 10 µM
> 10		> 10	> 10	Fc1cnc(Nc2cccc(OC(F)(F)F)c2)nc1Nc1cccc(OC(F)(F)F)c1 [Compound R926038, N2,N4-Bis(3-trifluoromethoxyphenyl)-5-fluoro-2,4-pyrimidinediamine]	> 10	
> 10	> 10			CC(C)(C)c1ccc(Nc2ncc(F)c(Nc3ccc(C(C)(C)C)cc3)n2)cc1 [Compound R926222, N2,N4-Bis(4-tert-butylphenyl)-5-fluoro-2,4-pyrimidinediamine]	> 10	
				O=C(c1cc2cc(Nc3ncc(F)c(Nc4ccc5c(c4)OCCO5)n3)ccc2o1)N1CCNCC1 [Compound R926501, N4-(3,4-Ethylenedioxyphenyl)-5-fluoro-N2-[2-(N-piperazino)carbonylbenzofuran-5-yl]-2,4-pyrimidinediamine Hydrogen Chloride Salt]		IC50 [6]: > 10 µM
> 10		> 10	> 10	CCOc1ccc(Nc2cc(C(=O)OC)nc(Nc3ccc(OCC)cc3)n2)cc1 [Compound R926058, N2,N4-Bis(4-ethoxyphenyl)-6-methoxycarbonyl-2,4-pyrimidinediamine]	> 10	
